{
  "source": "patent US9481667B2",
  "about": "“Salts and solid forms of isoquinolinones and composition comprising and methods of using the same” (Infinity Pharmaceuticals, Inc., priority 2013, dated 2016)",
  "type_in_all_cases": "physicochemical",
  "key": {"[1]": {"test": "Gravimetric vapour sorption (GVS)", "details": "for XRPD post GVS (C2): 0.5 g scale-up salts; for GVS Single cycle: hygroscopicity, 25° C., 0-90% RH", "how_it_was_run": "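Moisture sorption isotherm at 25° C, 0-90% RH in 10% RH steps, 2 scans giving one full cycle, starting from 40% RH. Each step equilibrated 1-4 h until mass within 5% of predicted asymptote; solid re-checked by XRPD afterwards.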"}, "[2]": {"test": "Thermodynamic aqueous solubility", "details": "solid after thermodynamic aqueous solubility"}, "[3]": {"test": "Polymorph screen: maturation (temperature cycling RT/50° C.) in solvents", "protocol": "One of 21 solvents was added to each vial in a number of aliquots (up to 30 volumes), with shaking. All the samples were then placed under maturation between RT to 50° C. (4 hours at each temperature) for 3 days. After maturation the samples were analysed by XRPD. Clear solutions were cooled to −20° C. (freezer). If no precipitation occurred samples were evaporated at RT.\nSamples were placed under maturation between RT-50° C. (4 hours cycle) for 3 days. After maturation the samples were analyzed by XRPD. Clear solutions were then cooled to −20° C. (freezer). If no precipitation occurred, samples were evaporated at RT.\nBis-Sulfuric acid salt Form 1 of Compound 1 (ca. 35 mg) was weighed into vials. The corresponding solvents and solvent mixtures were added in portions of (a total of) 5, 10, 20, and 30 volumes at 50° C., with shaking, aiming for clear solutions. After each addition, the vials were allowed to shake for 20 minutes, after which observations were made. Solutions were allowed to evaporate, whereas slurries were set for 8 hour temperature cycling maturation, between RT and 50° C., for 5 days.\nThe oils obtained by solvent evaporation were used for the maturation screen. Anhydrous solvents (5 volumes; 100 μL) were used in order to minimise the amount of water present. Any solutions were allowed to slowly evaporate, whereas slurries were set for 8 hour temperature cycling maturation, between RT and 50° C. After 24 hours, most oils had not mixed with the solvents, and these were scratched with a spatula, producing slurries. These were matured for a further 24 hours before performing XRPD analysis.\nAmorphous free base Compound 1 (ca. 25 mg) was weighed into vials. The selected solvents and solvent mixtures (5 to 20 volumes) were added with stirring. Any solutions were allowed to slowly evaporate, whereas slurries were set for 8 hour temperature cycling maturation, between RT and 50° C., for 2 days.\nCrystals were ground in order to analyse them by XRPD. Suspensions were set for temperature cycling for a total of five days after which time XRPD analysis was carried out. […] Similar to the screen in Example 20, these XRPD patterns show slight differences (FIG. 37). However, solids from both screens obtained from the same solvent show a matching XRPD pattern, also supporting that this is a series of isostructural solvates. […]"}, "[4]": {"test": "Storage at 25° C./93% RH (solid-state stability)", "details": "0.5 g scale-up salts"}, "Dissolution": {"test": "Dissolution", "details": "in 15 min at pH 1.2", "protocol": "The dissolution rate for the hydrate was about 80% in 15 min at pH 1.2 and about 20% in 60 min at pH 2.5. The dissolution rate of the bis-sulfuric acid salt was 100% in 15 min at both pH 1.2 and pH 2.5."}, "[5]": {"test": "2-Week comparative stability studies", "details": "2 weeks; 5° C. (closed); ambient (closed); ambient (closed-exposed to light); ambient (open); 60° C. (closed); RT/75% RH (open); 40° C./75% RH (open)", "protocol": "(closed); (ii) ambient (closed); (iii) ambient (closed-exposed to light); (iv) ambient (open); (v) 60° C. (closed); (vi) RT/75% RH (open); and (vii) 40° C./75% RH (open)."}, "[6]": {"test": "Storage at 40° C./75% RH (solid-state stability)", "details": "for Storage 40° C./75% RH for 1 week: HPLC Purity / Storage 40° C./75% RH for 1 week: XRPD (D8): 0.5 g scale-up salts; for Stability on storage at 40° C./75% RH: 1 week, solid form by XRPD", "method": "The crystalline solids were filtered, dried at ambient conditions, and stored at 40° C./75% RH for 1 week and analyzed by ^1H NMR/IC.\nSamples from the screen using amorphous free base Compound 1 were analysed by ^1H-NMR and DSC, and re-analysis by XRPD was also carried out after drying at 50° C./vacuum and storage at 40° C./75% RH (the same sample was dried and stored at elevated humidity)."}, "[7]": {"test": "Density and flowability (Hausner ratio, Carr index)", "text": "The Hausner ratio and the Carr index are correlated to the flowability of a powder or granular material. […] The flowability of both salts are acceptable for manufacturing."}},
  "note": "Counter-ions that a name gives are not always drawn.",
  "data": [
    {"smiles": "COc1cc(-c2cccc3cc([C@H](C)Nc4nc(N)ncc4C#N)n(-c4ccccc4)c(=O)c23)ccn1", "note": "[Form 1 of the maleic acid salt of Compound 1] [(S)-2-amino-4-((1-(8-(2-methoxypyridin-4-yl)-1-oxo-2-phenyl-1,2-dihydroisoquinolin-3-yl)ethyl)amino)pyrimidine-5-carbonitrile]", "values": [
      {"measurement": "XRPD post GVS (C2)", "setting": "[1]", "value": "Unchanged"},
      {"measurement": "GVS Single cycle", "setting": "[1]", "value": "Slightly hygroscopic"},
      {"measurement": "XRPD (C2) post Aqueous solubility", "setting": "[2]", "value": "FB pattern 2"},
      {"measurement": "Salt stability on maturation in solvents", "setting": "[3]; RT to 50° C., 3 days, Ethanol, 2-Propanol, 1-Propanol, Acetone, THF, 2-Propanol/Water (90/10 v/v), EtOH/Water (90/10 v/v), Acetic acid/Water (25/75 v/v): free base recrystallized", "value": "tendency to dissociate"},
      {"measurement": "Storage 25° C./93% RH for 1 week: HPLC Purity", "setting": "[4]", "value": "HPLC Purity: 99.8% Peak Area"},
      {"measurement": "Storage 25° C./93% RH for 1 week: XRPD (D8)", "setting": "[4]", "value": "XRPD (D8): Unchanged"},
      {"measurement": "dissolution rate", "setting": "Dissolution; listed as Form 1 of mono-maleic acid salt", "value": 100, "unit": "%"},
      {"measurement": "Change of water content (KF)", "setting": "[5]", "value": "No significant change of water content"},
      {"measurement": "Storage 40° C./75% RH for 1 week: HPLC Purity", "setting": "[6]", "value": "HPLC Purity: 99.8% Peak Area"},
      {"measurement": "Storage 40° C./75% RH for 1 week: XRPD (D8)", "setting": "[6]", "value": "XRPD (D8): Unchanged"},
      {"measurement": "Stability on storage at 40° C./75% RH", "setting": "[6]", "value": "stable"},
      {"measurement": "Stability on storage at 40° C./75% RH", "setting": "[6]; listed as mono-maleic acid salt", "value": "stable"},
      {"measurement": "Flowability compared to the hydrate", "setting": "[7]", "value": "improved flowability"}
    ]},
    {"smiles": "COc1cc(-c2cccc3cc([C@H](C)Nc4nc(N)ncc4C#N)n(-c4ccccc4)c(=O)c23)ccn1", "note": "[Form 1 of the sulfuric acid salt of Compound 1] [(S)-2-amino-4-((1-(8-(2-methoxypyridin-4-yl)-1-oxo-2-phenyl-1,2-dihydroisoquinolin-3-yl)ethyl)amino)pyrimidine-5-carbonitrile]", "values": [
      {"measurement": "XRPD post GVS (C2)", "setting": "[1]", "value": "Unchanged"},
      {"measurement": "GVS Single cycle", "setting": "[1]", "value": "Slightly hygroscopic"},
      {"measurement": "Solid form after maturation of slurries", "setting": "[3]; slurries in 30 volumes of solvent, RT/50° C. cycling, five days (all experiments other than acetic acid/water, methanol, ethanol/water)", "value": "did not show any changes"},
      {"measurement": "Storage 25° C./93% RH for 1 week: HPLC Purity", "setting": "[4]", "value": "HPLC Purity: Unchanged"},
      {"measurement": "Storage 25° C./93% RH for 1 week: XRPD (D8)", "setting": "[4]", "value": "XRPD (D8): Unchanged"},
      {"measurement": "dissolution rate", "setting": "Dissolution; listed as Form 1 of bis-sulfuric acid salt monohydrate", "value": 100, "unit": "%"},
      {"measurement": "Change of water content (KF)", "setting": "[5]", "value": "No significant change of water content"},
      {"measurement": "Storage 40° C./75% RH for 1 week: HPLC Purity", "setting": "[6]", "value": "HPLC Purity: Unchanged"},
      {"measurement": "Storage 40° C./75% RH for 1 week: XRPD (D8)", "setting": "[6]", "value": "XRPD (D8): Unchanged"},
      {"measurement": "Stability on storage at 40° C./75% RH", "setting": "[6]", "value": "stable"},
      {"measurement": "Stability on storage at 40° C./75% RH", "setting": "[6]; listed as bis-sulfuric acid salts", "value": "stable"},
      {"measurement": "Flowability compared to the hydrate", "setting": "[7]", "value": "improved flowability"}
    ]}
  ]
}
